# Laboratory results reported in patent US11414424B2, “Cardiac sarcomere inhibitors” (Cytokinetics, Inc., priority 2018, dated 2022).
# Test system: bovine cardiac myofibrils
# Experiment: Myofibril assay: PK/LDH-coupled steady-state ATPase activity of skinned bovine cardiac myofibrils
# Format: biochemical
# Conditions: Ca2+ activating to 75% of maximal rate
# Summary of the method: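 Steady-state ATPase of detergent-skinned bovine left-ventricular myofibrils (1 mg/mL), PK/LDH-coupled NADH read at 340 nm, in PIPES/MgCl2 buffer pH 6.8 with 50 μM ATP, 0.6 mM EGTA and CaCl2 set for 50% or 75% activation. Inhibition of activity measured.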
row,CDMF75 IC15,Structure (SMILES)
1,600 nM,"CNC(=O)N1CC2(C1)C(=O)N(c1ccc(C#N)cc1F)CC(=O)N2Cc1ccc(C2(C(F)(F)F)N=N2)cc1 [Compound 173, 8-(4-cyano-2-fluorophenyl)-N-methyl-6,9-dioxo-5-(4-(3-(trifluoromethyl)-3H-diazirin-3-yl)benzyl)-2,5,8-triazaspiro[3.5]nonane-2-carboxamide]"
2,8000 nM,"CC(C)C(=O)N1CC2(C1)C(=O)N(c1ccc(C#N)cc1F)CC(=O)N2Cc1ccc(C(F)(F)F)cc1 [Compound 174, 3-fluoro-4-(2-isobutyryl-6,9-dioxo-5-(4-(trifluoromethyl)benzyl)-2,5,8-triazaspiro[3.5]nonan-8-yl)benzonitrile]"
3,1200 nM,"CC(=O)N1CC2(C1)C(=O)N(c1ccc(C#N)cc1F)CC(=O)N2Cc1ccc(Cl)cc1 [Compound 175, 4-(2-acetyl-5-(4-chlorobenzyl)-6,9-dioxo-2,5,8-triazaspiro[3.5]nonan-8-yl)-3-fluorobenzonitrile]"
4,8500 nM,"CC(=O)N1CC2(C1)C(=O)N(c1ccc(C#N)cc1F)CC(=O)N2Cc1ccc(F)cc1 [Compound 176, 4-(2-acetyl-5-(4-fluoro-benzyl)-6,9-dioxo-2,5,8-triazaspiro[3.5]nonan-8-yl)-3-fluorobenzonitrile]"
5,1800 nM,"CNC(=O)N1CC2(C1)C(=O)N(c1ccc3oc(=O)ccc3c1)CC(=O)N2Cc1ccc(C(F)(F)F)cc1 [Compound 177, N-methyl-6,9-dioxo-8-(2-oxo-2H-chromen-6-yl)-5-(4-(trifluoromethyl)benzyl)-2,5,8-triazaspiro[3.5]-nonane-2-carboxamide]"
6,800 nM,"C#Cc1ccc(N2CC(=O)N(Cc3ccc(C4(C(F)(F)F)N=N4)cc3)C3(CN(C(=O)NC)C3)C2=O)c(F)c1 [Compound 178, 8-(4-ethynyl-2-fluoro-phenyl)-N-methyl-6,9-dioxo-5-(4-(3-(trifluoromethyl)-3H-diazirin-3-yl)benzyl)-2,5,8-triazaspiro[3.5]nonane-2-carboxamide]"
7,1600 nM,"N#Cc1ccc(N2CC(=O)N(Cc3ccc(C(F)(F)F)cc3)C3(CN(C(=O)C4CCC4)C3)C2=O)c(F)c1 [Compound 180, 4-(2-(cyclobutanecarbonyl)-6,9-dioxo-5-(4-(trifluoromethyl)benzyl)-2,5,8-triazaspiro[3.5]nonan-8-yl)-3-fluorobenzonitrile]"
8,6200 nM,"CNC(=O)N1CC2(C1)C(=O)N(c1ccc3oc(=O)ccc3c1)CC(=O)N2Cc1ccc(C2(C(F)(F)F)N=N2)cc1 [Compound 181, N-methyl-6,9-dioxo-8-(2-oxo-2H-chromen-6-yl)-5-(4-(3-(trifluoromethyl)-3H-diazirin-3-yl)benzyl)-2,5,8-triazaspiro[3.5]-nonane-2-carboxamide]"
9,2900 nM,"CC(=O)N1CC2(C1)C(=O)N(c1ncc(Cl)cc1F)CC(=O)N2Cc1ccc(Cl)cc1 [Compound 182, 2-acetyl-8-(5-chloro-3-fluoropyridin-2-yl)-5-(4-chlorobenzyl)-2,5,8-triazaspiro[3.5]nonane-6,9-dione]"
10,4600 nM,"CNC(=O)N1CCC2(C1)C(=O)N(c1ccc(C#N)cc1)CC(=O)N2Cc1ccc(C(F)(F)F)cc1 (stereo not drawn) [Compound 183, 9-(4-cyanophenyl)-N-methyl-7,10-dioxo-6-(4-(trifluoromethyl)benzyl)-2,6,9-triazaspiro[4.5]-decane-2-carboxamide]"
11,25500 nM,"CNC(=O)N1CCC2(C1)C(=O)N(c1ccc(C#N)nc1)CC(=O)N2Cc1ccc(C(F)(F)F)cc1 (stereo not drawn) [Compound 184, 9-(6-cyanopyridin-3-yl)-N-methyl-7,10-dioxo-6-(4-(trifluoromethyl)benzyl)-2,6,9-triazaspiro[4.5]-decane-2-carboxamide]"
12,3200 nM,"CNC(=O)N1CCC2(C1)C(=O)N(c1ccc(C#N)cc1)CC(=O)N2Cc1ccc(Cl)cc1 (stereo not drawn) [Compound 185, 6-(4-chlorobenzyl)-9-(4-cyanophenyl)-N-methyl-7,10-dioxo-2,6,9-triazaspiro[4.5]decane-2-carboxamide]"
13,15800 nM,"CC(=O)N1CC2(C1)C(=O)N(c1ccc(C#N)cc1)CC(=O)N2Cc1ccc(C(F)(F)F)cc1 [Compound 186, 4-(2-acetyl-6,9-dioxo-5-(4-(trifluoromethyl)benzyl)-2,5,8-triazaspiro[3.5]nonan-8-yl)benzonitrile]"
14,15900 nM,"CCC(=O)N1CC2(C1)C(=O)N(c1ccc(C#N)cc1)CC(=O)N2Cc1ccc(C(F)(F)F)cc1 [Compound 187, 4-(6,9-dioxo-2-propionyl-5-(4-(trifluoromethyl)benzyl)-2,5,8-triazaspiro[3.5]nonan-8-yl)benzonitrile]"
15,2600 nM,"COC(=O)N1CC2(C1)C(=O)N(c1ccc(C#N)cc1)CC(=O)N2Cc1ccc(C(F)(F)F)cc1 [Compound 188, methyl 8-(4-cyanophenyl)-6,9-dioxo-5-(4-(trifluoromethyl)benzyl)-2,5,8-triazaspiro[3.5]-nonane-2-carboxylate]"
16,1400 nM,"CNC(=S)N1CC2(C1)C(=O)N(c1ccc(C#N)cc1)CC(=O)N2Cc1ccc(C(F)(F)F)cc1 [Compound 189, 8-(4-cyanophenyl)-N-methyl-6,9-dioxo-5-(4-(trifluoromethyl)benzyl)-2,5,8-triazaspiro[3.5]-nonane-2-carbothioamide]"
17,4000 nM,"N#Cc1ccc(N2CC(=O)N(Cc3ccc(C(F)(F)F)cc3)C3(CN(C=O)C3)C2=O)cc1 [Compound 190, 4-(2-formyl-6,9-dioxo-5-(4-(trifluoromethyl)benzyl)-2,5,8-triazaspiro[3.5]nonan-8-yl)benzonitrile]"
18,14300 nM,"N#Cc1ccc(N2CC(=O)N(Cc3ccc(C(F)(F)F)cc3)C3(CN(CC(F)F)C3)C2=O)cc1 [Compound 191, 4-(2-(2,2-difluoroethyl)-6,9-dioxo-5-(4-(trifluoromethyl)benzyl)-2,5,8-triazaspiro[3.5]nonan-8-yl)benzonitrile]"
19,600 nM,"N#Cc1ccc(N2CC(=O)N(Cc3ccc(C(F)(F)F)cc3)C3(CN(c4ccc(C#N)cn4)C3)C2=O)cc1 [Compound 192, 6-(8-(4-cyanophenyl)-6,9-dioxo-5-(4-(trifluoromethyl)benzyl)-2,5,8-triazaspiro[3.5]nonan-2-yl)nicotinonitrile]"
20,2300 nM,"N#Cc1ccc(N2CC(=O)N(Cc3ccc(C(F)(F)F)cc3)C3(CN(C(=O)NC4CC4)C3)C2=O)cc1F [Compound 199, 8-(4-cyano-3-fluorophenyl)-N-cyclopropyl-6,9-dioxo-5-(4-(trifluoromethyl)benzyl)-2,5,8-triazaspiro[3.5]nonane-2-carboxamide]"
21,900 nM,"Cn1cc(NC(=O)N2CC3(C2)C(=O)N(c2ccc(C#N)c(F)c2)CC(=O)N3Cc2ccc(C(F)(F)F)cc2)cn1 [Compound 200, 8-(4-cyano-3-fluorophenyl)-N-(1-methyl-1H-pyrazol-4-yl)-6,9-dioxo-5-(4-(trifluoromethyl)benzyl)-2,5,8-triazaspiro[3.5]nonane-2-carboxamide]"
22,600 nM,"N#Cc1ccc(N2CC(=O)N(Cc3ccc(C(F)(F)F)cc3)C3(CN(C(=O)C4CC4)C3)C2=O)c(F)c1 [Compound 203, 4-(2-(cyclopropanecarbonyl)-6,9-dioxo-5-(4-(trifluoromethyl)benzyl)-2,5,8-triazaspiro[3.5]nonan-8-yl)-3-fluorobenzonitrile]"
23,200 nM,"N#Cc1ccc(N2CC(=O)N(Cc3ccc(C(F)(F)F)cc3)C3(CN(C(N)=O)C3)C2=O)c(F)c1 [Compound 204, 8-(4-cyano-2-fluorophenyl)-6,9-dioxo-5-(4-(trifluoromethyl)benzyl)-2,5,8-triazaspiro[3.5]nonane-2-carboxamide]"

row,Structure (SMILES),CDMF75 IC15
1,"N#Cc1ccc(N2CC(=O)N(Cc3ccc(C(F)(F)F)cc3)C3(CN(CC(F)F)C3)C2=O)cc1F [Compound 193, 4-(2-(2,2-difluoroethyl)-6,9-dioxo-5-(4-(trifluoromethyl)benzyl)-2,5,8-triazaspiro[3.5]nonan-8-yl)-2-fluorobenzonitrile]",1700 nM
2,"N#Cc1ccc(N2CC(=O)N(Cc3ccc(C(F)(F)F)cc3)C3(CN(C=O)C3)C2=O)cc1F [Compound 194, 2-fluoro-4-(2-formyl-6,9-dioxo-5-(4-(trifluoromethyl)benzyl)-2,5,8-triazaspiro[3.5]nonan-8-yl)benzonitrile]",400 nM
3,"CNC(=S)N1CC2(C1)C(=O)N(c1ccc(C#N)c(F)c1)CC(=O)N2Cc1ccc(C(F)(F)F)cc1 [Compound 195, 8-(4-cyano-3-fluorophenyl)-N-methyl-6,9-dioxo-5-(4-(trifluoromethyl)benzyl)-2,5,8-triazaspiro[3.5]nonane-2-carbothioamide]",400 nM
4,"COC(=O)N1CC2(C1)C(=O)N(c1ccc(C#N)c(F)c1)CC(=O)N2Cc1ccc(C(F)(F)F)cc1 [Compound 196, methyl 8-(4-cyano-3-fluorophenyl)-6,9-dioxo-5-(4-(trifluoromethyl)benzyl)-2,5,8-triazaspiro[3.5]nonane-2-carboxylate]",400 nM
5,"CC(=O)N1CC2(C1)C(=O)N(c1ccc(C#N)c(F)c1)CC(=O)N2Cc1ccc(C(F)(F)F)cc1 [Compound 197, 4-(2-acetyl-6,9-dioxo-5-(4-(trifluoromethyl)benzyl)-2,5,8-triazaspiro[3.5]nonan-8-yl)-2-fluorobenzonitrile]",2700 nM
6,"N#Cc1ccc(N2CC(=O)N(Cc3ccc(C(F)(F)F)cc3)C3(CN(C(N)=O)C3)C2=O)cc1F [Compound 198, 8-(4-cyano-3-fluorophenyl)-6,9-dioxo-5-(4-(trifluoromethyl)benzyl)-2,5,8-triazaspiro[3.5]nonane-2-carboxamide]",500 nM
7,"CN(C)C(=O)N1CC2(C1)C(=O)N(c1ccc(C#N)c(F)c1)CC(=O)N2Cc1ccc(C(F)(F)F)cc1 [Compound 201, 8-(4-cyano-3-fluorophenyl)-N,N-dimethyl-6,9-dioxo-5-(4-(trifluoromethyl)benzyl)-2,5,8-triazaspiro[3.5]nonane-2-carboxamide]",5100 nM
